Among the data in BindingDB's records for PubMed 34752953 (Zhengzhou University, 2022) are IC50 values, retold here.

The assay deals with Indoleamine 2,3-dioxygenase 1 (Homo sapiens, UniProt P14902). Description: Inhibition of IDO1 (unknown origin).
Sequence of Indoleamine 2,3-dioxygenase 1 (P14902 whole entry): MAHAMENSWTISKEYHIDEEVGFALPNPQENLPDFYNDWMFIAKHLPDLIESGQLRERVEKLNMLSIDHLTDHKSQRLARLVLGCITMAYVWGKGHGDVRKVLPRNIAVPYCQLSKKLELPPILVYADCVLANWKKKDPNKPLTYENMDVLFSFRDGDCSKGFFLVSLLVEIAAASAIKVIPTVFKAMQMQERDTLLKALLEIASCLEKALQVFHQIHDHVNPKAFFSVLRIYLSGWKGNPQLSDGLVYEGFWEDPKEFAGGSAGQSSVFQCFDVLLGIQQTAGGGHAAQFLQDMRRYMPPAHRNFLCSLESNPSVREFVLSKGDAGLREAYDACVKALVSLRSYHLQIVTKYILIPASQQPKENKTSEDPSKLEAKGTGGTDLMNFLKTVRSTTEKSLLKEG

One may read the IC50 as the concentration at which inhibition is half-maximal. Turning to `O[C@@H](C[C@H]1c2sccc2-c2cncn21)C1CCC(F)(F)CC1`, the IC50 is 11 nM.
